In this experiment the target is T1, human GPR84 receptor (Homo sapiens, UniProt Q9NQS5).
T1 construct: host or cells: HEK293, transient transfection
In words: Gαi biosensor BRET assay in HEK293 cells (antagonism of ZQ-16). In kind it is cell-based. The following applies: for inhibition at 10 µM: HEK293, single concentration 10 μM (designated F); for IC50: HEK293 cells, antagonism of 200 nmol/L ZQ-16; for inhibition at 2 µM: HEK293, single concentration 2 μM (designated A). The source says:
Background—The following assays can be used for determination of GPR84 activation in living HEK293 cells. The Gai BRET biosensor (Gagnon et al., 2018; Gales et al., 2006. Nat StructMol Biol. 13, 778-86; Saulieres et al., 2012. Nat Chem Biol. 8, 622-30) allows to directly monitor GPR84-mediated activation of Gai. The Gai biosensor consists of a Rluc8-tagged Gαi2 subunit, a GFP10-tagged Gγ2 subunit, and an untagged Gβ1. Agonist stimulation and GPR84 activation triggers a physical separation between the RLuc8-Gαi donor and the GFP10-Gγ2 acceptor, resulting in a decrease in BRET signal whose amplitude is correlated to ligand efficacy (Gales et al., 2006). Moreover, signaling functions of GPCRs are tightly regulated by endocytosis, the targeting of receptors to endosomes and their sorting to lysosomes or recycling to the plasma membrane. The early endosomes (EEs) trafficking assay (Namkung et al., 2016. Nat Commun. 7, 12178) uses Rluc8-tagged GPR84 and Renilla GFP (rGFP) attached to the FYVE domain from human endofin/zinc finger FYVE domain-containing protein 16, which binds phosphatidylinositol 3-phosphate in EEs. Agonist stimulation of GPR84-Rluc8 leads to trafficking of the receptor to EEs, and ensuing increase of the donor concentration relative to the rGFP-FYVE acceptor anchored in the same cellular compartment, and thus results in an increase in BRET signal.
Plasmids—The cDNA clones for human GPR84 receptor, human Gai2, Gp1, and Gy2 were obtained from the cDNA Resource Center (www.cdna.org). GFP10 (F64L, S147P, S202F and H231L variant of Aequorea victoria Green Fluorescent Protein) gBlocks gene fragments (Integrated DNA Technologies, IA) and linker were inserted in frame at the N-terminus of human Gγ2. Rluc8 (A55T, C124A, S130A, K136R, A143M, M185V, M253L, and S287L variant of the Renilla renformis luciferase) gBlocks gene fragment was inserted with linkers in frame in between residues 91 and 92 of Gai2 or at the C-terminus of GPR84. The FYVE domain from human endofin (residues Q739 to K806) attached in frame at the C terminus of a humanized Renilla GFP (rGFP), were synthesized as gBlocks gene fragments.
Bioluminescence Resonance Energy Transfer (BRET) Measurement—HEK293 cells were transfected with GPR84-Rluc8 and rGFP-FYVE for the EEs trafficking biosensor or with GPR84, Gαi2-Rluc8, GFP10-Gγ2, and Gβ1 for the Gαi biosensor. The following day, transiently transfected cells were seeded in 96-well white clear bottom microplates coated with poly-D-lysine and left in culture for 24 hours. Cells were washed once with Tyrode's buffer (140 mmol/L NaCl, 1 mmol/L CaCl2, 2.7 mmol/L KCl, 0.49 mmol/L MgCl2, 0.37 mmol/L NaH2PO4, 5.6 mmol/L glucose, 12 mmol/L NaHCO3, and 25 mmol/L HEPES, pH 7.5) before performing assays in Tyrode's buffer. Test compounds were incubated with cells for 5 (Gαi) or 15 (EEs) minutes at 37° C. before addition of 200 nmol/L of the GPR84 agonist ZQ-16 (2-(Hexylthio)-6-hydroxy-4(3H)-pyrimidinone) for 5 minutes at room temperature (Gαi) or 30 minutes at 37° C. (EEs). The Rluc8 substrate coelenterazine 400A (Prolume, Lakeside, AZ) was added at a final concentration of 5 μmol/L and BRET readings were collected using an Infinite M1000 microplate reader (Tecan, Morrisville, NC). BRET^2 readings between Rluc8 and GFP10 or rGFP were collected by sequential integration of the signals detected in the 370 to 450 nm (Rluc8) and 510 to 540 nm (GFP10, rGFP) windows. The BRET signal was calculated as the ratio of light emitted by acceptor (GFP10, rGFP) over the light emitted by donor (Rluc8). The values were corrected to net BRET by subtracting the background BRET signal obtained in cells transfected with Rluc8 constructs alone. Ligand-promoted net BRET values were calculated by subtracting vehicle-induced net BRET from ligand-induced net BRET.
Background: Bioluminescence resonance energy transfer reports proximity on the nanometre scale.

T1 sequence (Q9NQS5 whole entry): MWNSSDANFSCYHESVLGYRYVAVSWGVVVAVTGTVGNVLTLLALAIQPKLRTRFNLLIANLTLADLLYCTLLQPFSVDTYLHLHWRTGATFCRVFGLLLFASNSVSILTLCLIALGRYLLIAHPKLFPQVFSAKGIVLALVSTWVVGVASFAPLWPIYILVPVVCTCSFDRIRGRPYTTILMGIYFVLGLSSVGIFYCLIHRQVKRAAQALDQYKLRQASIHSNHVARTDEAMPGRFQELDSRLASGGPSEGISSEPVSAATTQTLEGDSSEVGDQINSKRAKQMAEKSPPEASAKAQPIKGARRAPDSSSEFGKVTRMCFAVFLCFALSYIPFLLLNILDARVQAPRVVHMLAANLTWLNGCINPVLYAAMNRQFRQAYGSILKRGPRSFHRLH

`Cc1cc(N2CCN(Cc3cccnn3)CC2)ccc1-c1cn(CC2CCCCO2)nn1` (stereo not shown) [Compound I-548] gave an inhibition at 10 µM of 50 to 75% and an IC50 of more than 3000 nM.

Compound `CCc1cc(C#CC2CC2)cnc1-c1cn(CC2CCOCC2)nn1` [Compound I-274] yielded an inhibition at 10 µM of 50 to 75%.

`COC(=O)N1CCOCC1Cn1cc(-c2ccc(C#CC3CC3)cc2C)nn1` (stereo not shown) [Compound I-106] registered an inhibition at 10 µM not above 25%.

For `CN(C)c1cc(N2CC(C)(CO)C2)ccc1-c1cn(CC2CC3(CC3)CO2)nn1` (stereo not shown) [Compound I-707], the inhibition at 10 µM was more than 75% and the half-inhibitory concentration (IC50) is not above 300 nM.

`Cc1cc(N2CC3(CCN(Cc4ccccc4)C3)C2)ccc1-c1cn(CC2CCCCO2)nn1` (stereo not shown) [Compound I-169] returned an inhibition at 10 µM not above 25%.

The compound `Cc1cc(N2CC(C)(CO)C2)ccc1-c1cn(CC2OCC(C)(C)O2)nn1` (stereo not shown) [Compound I-626] returned an inhibition at 10 µM of 25 to 50%.

In turn, `Cc1cc(C#CC2CC2)ccc1-c1cn(CC2COc3ccccc3O2)nn1` (stereo not shown) [Compound I-101] yielded an inhibition at 10 µM of 25 to 50%.

For `CC1(C)COC(Cn2cc(-c3ncc(C#CC4CC4)cc3CO)nn2)OC1` [Compound I-738], the inhibition at 2 µM was not above 25%.

In turn, `Cc1cc(N2CCN(c3ccccn3)CC2)ccc1-c1cn(CC2CCCCO2)nn1` (stereo not shown) [Compound I-533] gave an inhibition at 10 µM not above 25%.

`COCC#Cc1ccc(-c2cn(CC3OCC(C)(C)CO3)nn2)c(N(C)C)c1` [Compound I-829] came in with an inhibition at 10 µM of more than 75% and an IC50 not above 300 nM.

`Cc1cc(N2CCNCC2)ccc1-c1cn(CC2CCCCO2)nn1` (stereo not shown) [Compound I-183] came in with an inhibition at 10 µM not above 25%.

In turn, `Cc1cc(N2CC3(CCCN3c3ccccn3)C2)ccc1-c1cn(CC2OCC(C)(C)CO2)nn1` [Compound I-689] gave an inhibition at 10 µM of more than 75% and an IC50 of 1000 to 3000 nM.

Regarding `Cc1cc(C#CCNc2ccccc2)ccc1-c1cn(CCOc2ccccn2)nn1` [Compound I-135], the inhibition at 10 µM is not above 25%.

In turn, `COC1CCN(c2ccc(-c3cn(CC4CCCCO4)nn3)c(C)c2)CC1` (stereo not shown) [Compound I-437] showed an inhibition at 10 µM of 25 to 50%.

In the case of `Cc1cccc(-c2cn(CC#Cc3cnc(-c4cn(CC5CCCCO5)nn4)c(C)c3)nn2)c1` (stereo not shown) [Compound I-718], the inhibition at 2 µM was more than 75% and the half-maximal inhibitory concentration (IC50) is 300 to 1000 nM.

On to `Cc1cc(OCC(F)(F)F)cnc1-c1cn(CC2OCC(C)(C)O2)nn1` (stereo not shown) [Compound I-639], for which the inhibition at 10 µM is not above 25%.

The compound `Cc1cc(N2CCN(CC3CC4CCN3CC4)CC2)ccc1-c1cn(CC2OCC(C)(C)CO2)nn1` (stereo not shown) [Compound I-661] displayed an inhibition at 10 µM not above 25%.

With `CC1(C)COC(Cn2cc(-c3cn(CC4OCC(C)(C)CO4)nn3)nn2)OC1` [Compound I-827], the inhibition at 10 µM lay in the range of 50 to 75%.

Consider `Cc1cc(C#CC2CC2)cnc1-c1cn(CC2CCCO2)nn1` (stereo not shown) [Compound I-204], for which the inhibition at 10 µM was 25 to 50%.

Compound `Cc1ccc(Cl)cc1N(C)c1cn(CC2OCC3(CC3)CO2)nn1` [Compound I-844] returned an inhibition at 10 µM of 50 to 75%.

`Cc1cc(CO)ccc1-c1cn(CC2CCCCO2)nn1` (stereo not shown) [Compound I-468] displayed an inhibition at 10 µM of 25 to 50%.

The compound `CCc1cc(C#CCNC(=O)OC)ccc1-c1cn(CC2CCCCO2)nn1` (stereo not shown) [Compound I-586] showed an inhibition at 10 µM of more than 75% and an IC50 of 1000 to 3000 nM.

Turning to `Cc1cc(N2CC3(C2)CN(c2ccccn2)C3)ccc1-c1cn(CC2CCCCO2)nn1` (stereo not shown) [Compound I-652], the inhibition at 10 µM is not above 25%.

The compound `Cc1cc(NS(C)(=O)=O)ccc1-c1cn(CC2CCCCO2)nn1` (stereo not shown) [Compound I-130] displayed an inhibition at 10 µM not above 25%.

`COC(c1cn(CC2CCCCO2)nn1)c1cc(C#CC(C)(C)O)ccc1F` (stereo not shown) [Compound I-632] returned an inhibition at 10 µM not above 25%.

The compound `Cc1cc(N2CC(C)(NCc3ccccn3)C2)c(F)cc1-c1cn(CC2CCCCO2)nn1` (stereo not shown) [Compound I-737] gave an inhibition at 10 µM of more than 75% and an IC50 of 300 to 1000 nM.

Turning to `CN(C)c1cc(N2CC(C)(CO)C2)ccc1-c1cn(CC2OCC(C)(C)CO2)nn1` [Compound I-654], the inhibition at 10 µM is more than 75% and the IC50 is not above 300 nM.

The compound `Cc1cc(N2CCC(O)CC2)ccc1-c1cn(CC2CCCCO2)nn1` (stereo not shown) [Compound I-449] displayed an inhibition at 10 µM of 25 to 50%.

`C(#CC1CC1)c1ccc(-c2cn(C[C@H]3CCCCO3)nn2)nc1` [Compound I-28] gave an inhibition at 25 µM (HEK293, single concentration 25 μM (designated I)) of 25 to 50%.

On to `Cc1cc(C#CC2CC2)ccc1-c1cn(CC2CN(C)CCO2)nn1` (stereo not shown) [Compound I-181], for which the inhibition at 10 µM is not above 25%.

Turning to `CC1(C)COC(Cn2cc(-c3ncc(C#CCN4CC(C)(C)C4)cc3CC(F)(F)F)nn2)OC1` [Compound I-762], the IC50 was not above 300 nM.

In turn, `Cc1cc(N2CCN(CC3CC4CCN3CC4)CC2)ccc1-c1cn(CC2CCCCO2)nn1` (stereo not shown) [Compound I-657] had an inhibition at 10 µM not above 25%.

Compound `Cc1cc(C#CC2CC2)cnc1-c1cn(CC2OCC3(CCC3)CO2)nn1` [Compound I-840] displayed an inhibition at 2 µM of more than 75%.

`Cc1cc(CN2CC(=O)NC2=O)ccc1-c1cn(CC2CCCCO2)nn1` (stereo not shown) [Compound I-558] came in with an inhibition at 10 µM not above 25%.

The compound `C(#CC1CC1)c1ccc(-c2cn(CC3CCCCO3)nn2)c(N2CCOCC2)c1` (stereo not shown) [Compound I-198] returned an inhibition at 10 µM of 25 to 50%.

`Cc1ccc(C#CC2CC2)cc1Oc1cn(CC2OCC(C)(C)CO2)nn1` [Compound I-773] came in with a concentration for half-maximal inhibition (IC50) of 300 to 1000 nM.

As to `Cc1cc(N2CCCCC2)ccc1-c1cn(CC2CCCCO2)nn1` (stereo not shown) [Compound I-256], the inhibition at 10 µM was not above 25%.

As for `COC(c1cn(CC2Oc3ccccc3O2)nn1)c1cc(C#CC2CC2)ccc1C` (stereo not shown) [Compound I-605], the inhibition at 10 µM was more than 75% and the IC50 fell in the range of 300 to 1000 nM.

`Cc1cc(C#CC2CC2)cnc1-c1cn(CC2CCC(C)(C)O2)nn1` (stereo not shown) [Compound I-252] gave an inhibition at 10 µM of 25 to 50%.

`CC(=O)c1ccc(C)c(N(C)c2cn(CC3OCC(C)(C)CO3)nn2)c1` [Compound I-825] came in with an inhibition at 2 µM of more than 75%.

The compound `Cc1cc(C#CC2CC2)ccc1-c1cn(CC2COCCN2C)nn1` (stereo not shown) [Compound I-527] registered an inhibition at 10 µM not above 25%.

The compound `FC(F)(F)Cc1cc(N2CCN(Cc3ccccn3)CC2)ccc1-c1cn(C[C@H]2CCCCO2)nn1` [Compound I-746] showed an inhibition at 2 µM of more than 75% and an IC50 not above 300 nM.

`Cc1cc(N2CC3(CC3)C2)cnc1-c1cn(CC2CCCCO2)nn1` (stereo not shown) [Compound I-571]: the inhibition at 10 µM was not above 25%.

For the compound `Cc1ccc(C#CC2CC2)cc1C1(c2cn(CC3CCCCO3)nn2)OCCO1` (stereo not shown) [Compound I-604], the inhibition at 10 µM is more than 75% and the IC50 was 1000 to 3000 nM.

`COC(C)(C)Cn1cc(-c2ccc(C#CCNc3ccccc3)cc2C)nn1` [Compound I-163] came in with an inhibition at 10 µM not above 25%.

For `Cc1cc(C#CCn2cc(C3CC3)nn2)ccc1-c1cn(CC2CCCCO2)nn1` (stereo not shown) [Compound I-645], the inhibition at 10 µM is more than 75%.

In turn, `Cc1ccc(C#CC2CC2)cc1[S+]([O-])c1cn(CC2OCC(C)(C)CO2)nn1` (racemic) [Compound I-782, (RS)-4-((5-(cyclopropylethynyl)-2-methylphenyl)sulfinyl)-1-((5,5-dimethyl-1,3-dioxan-2-yl)methyl)-1H-1,2,3-triazole] yielded an inhibition at 10 µM of more than 75%.

In general, inhibition refers to how much of the control response was suppressed. Read a low inhibition as little suppression. As a reminder, the IC50 is the concentration that gives 50% inhibition. Low readings indicate greater potency in that assay, high ones weaker potency in that assay.

(Values after patent publication US12617777B2, “GPR84 antagonists and uses thereof” (Liminal BioSciences Limited, priority 2021, dated 2026).)
